According to ChEMBL document CHEMBL5053557, “Discovery of Novel Dual-Target Inhibitor of Bromodomain-Containing Protein 4/Casein Kinase 2 Inducing Apoptosis and Autophagy-Associated Cell Death for Triple-Negative Breast Cancer Therapy” (J Med Chem, 2021):
The source made the active and inactive calls. The rule behind the calls is not given here.

Columns and labels:
MDA-MB-468 = experiment: Antiproliferative activity against human MDA-MB-468 cells incubated for 24 hrs by MTT assay; assay type: functional, cell-based; details: MDA-MB-468, 24 h
MDA-MB-231 [1] = experiment: cells; details: Homo sapiens, MDA-MB-231, 24 h
MDA-MB-231 [2] = experiment: Antitumor activity against human MDA-MB-231 cells xenografted in po dosed nude BALB/c mouse assessed as tumor growth inhibition at 1:1 JQ-1 : compound ratio administered once daily for 19 days and measured every 3 days; assay type: functional, organism-based; details: dose 50.0 mg/kg, time 19.0 day
Mus musculus = experiment: Toxicity in nude BALB/c mouse xenografted with human MDA-MB-231 cells assessed as change in body weight at 50 mg/kg, po containing 1:1 compound : JQ-1 ratio administered once daily for 19 days and measured every 3 days; assay type: organism-based; details: in vivo, 456 h, time 19 day

| SMILES | IC50 (MDA-MB-468) [µM] | IC50 (MDA-MB-231 [1]) [µM] | Activity (MDA-MB-231 [2]) | Activity (Mus musculus) |
| --- | --- | --- | --- | --- |
| COc1cc(OC)c2c(=S)cc(-c3cc(C)cc(C)c3)oc2c1 | > 50 | > 50 |  |  |
| CN1CCN(c2ccc(NC(=O)COc3ccc(-c4nc5ccc(Cl)cc5c(=O)[nH]4)cc3)cc2Cl)CC1 | 6.23 | 5.21 |  |  |
| COc1ccc2oc(-c3ccccc3)cc(=S)c2c1 | > 50 | > 50 |  |  |
| COc1cc(OC)c2c(=O)[nH]c(-c3cc(C)c(OCC(=O)Nc4cccc(N5CCOCC5)c4)c(C)c3)nc2c1 | 13.4 | 11.3 |  |  |
| Cc1ccc(-c2nc3ccccc3c(=O)[nH]2)cc1 | > 50 | > 50 |  |  |
| COc1cc(OC)c2c(=O)[nH]c(-c3cc(C)c(OCC(=O)Nc4ccc(N5CCOCC5)cc4)c(C)c3)nc2c1 | 9.49 | 8.23 |  |  |
| COc1cc(OC)c2c(=O)[nH]c(-c3cc(C)c(OCC(=O)Nc4nc5ccccc5[nH]4)c(C)c3)nc2c1 | 30.3 | > 50 |  |  |
| COc1cc(OC)c2c(=O)[nH]c(-c3cc(C)c(OCC(=O)Nc4ccc(N5CCOCC5)c(Cl)c4)c(C)c3)nc2c1 | 6.31 | 10.2 |  |  |
| COc1cc(OC)c2c(=O)[nH]c(-c3ccc(OCC(=O)Nc4cccc(N5CCN(C)CC5)c4)cc3)nc2c1 | 8.07 | 13.2 |  |  |
| COc1cc(OC)c2c(=O)[nH]c(-c3cc(C)c(Br)c(C)c3)nc2c1 | 29.6 | 25.2 |  |  |
| COC(=O)COc1ccc(-c2nc3cc(OC)cc(OC)c3c(=O)[nH]2)cc1 | 13.8 | 22 |  |  |
| CN1CCN(c2ccc(NC(=O)COc3ccc(-c4nc5cc(F)ccc5c(=O)[nH]4)cc3)cc2Cl)CC1 | 7.51 | 6.94 |  |  |
| COc1cc(OC)c2c(=O)[nH]c(-c3ccc(OCC(=O)Nc4cccc(N5CCOCC5)c4)cc3)nc2c1 | 17.8 | 15.3 |  |  |
| COc1cc(OC)c2c(=O)[nH]c(-c3cccc(C)c3)nc2c1 | 39.4 | 43.9 |  |  |
| COc1cc(OC)c2c(=O)[nH]c(-c3cc(C)c(OCC(=O)Nc4cc(OC)c(OC)c(OC)c4)c(C)c3)nc2c1 | 16.6 | 24.4 |  |  |
| COc1cc(OC)c2c(=O)[nH]c(-c3cc(Br)c(OCC(=O)NC4CCN(C)CC4)c(Br)c3)nc2c1 | 14.8 | 16.9 |  |  |
| COc1cc(OC)c2c(=O)[nH]c(-c3cc(C)c(OCC(=O)Nc4ccc(N5CCN(C)CC5)c(F)c4)c(C)c3)nc2c1 | 8.33 | 5.72 |  |  |
| COc1cc(OC)c2c(=O)[nH]c(-c3cc(C)c(OCC(=O)Nc4ccc(N5CCN(C)CC5)c(Cl)c4)c(C)c3)nc2c1 | 4.58 | 3.49 |  |  |
| COc1cc(OC)c2c(=O)[nH]c(-c3ccc(OCC(=O)Nc4ccc(N5CCOCC5)c(Cl)c4)cc3)nc2c1 | 8.29 | 4.52 |  |  |
| COc1cc(OC)c2c(=O)[nH]c(-c3cc(C)c(OCC(=O)NCC4CCOCC4)c(C)c3)nc2c1 | 25.6 | 23.6 |  |  |
| COc1cc(OC)c2c(=O)[nH]c(-c3cc(C)c(O)c(C)c3)nc2c1 | 19.3 | 17.5 |  |  |
| COc1ccc2nc(-c3ccc(C)cc3)[nH]c(=O)c2c1 | 30.4 | > 50 |  |  |

| SMILES | IC50 (MDA-MB-468) [µM] | IC50 (MDA-MB-231 [1]) [µM] | Activity (MDA-MB-231 [2]) | Activity (Mus musculus) |
| --- | --- | --- | --- | --- |
| COc1cc(OC)c2c(=O)[nH]c(-c3ccccc3OC)nc2c1 | 44.6 | > 50 |  |  |
| COc1cc(OC)c2c(=O)[nH]c(-c3ccc(OCC(=O)Nc4ccc(N5CCOCC5)cc4)cc3)nc2c1 | 9.54 | 7.67 |  |  |
| COc1cc(OC)c2c(=O)[nH]c(-c3ccc(N)cc3)nc2c1 | > 50 | 36.5 |  |  |
| COc1cccc(-c2nc3cc(OC)cc(OC)c3c(=O)[nH]2)c1 | 29.3 | 38.3 |  |  |
| COc1cc(OC)c2c(=O)[nH]c(-c3ccccc3OCC(=O)O)nc2c1 | 18.6 | 36.7 |  |  |
| COc1cc(OC)c2c(=O)[nH]c(-c3cc(Br)c(OCC(=O)Nc4ccc(N5CCOCC5)cc4)c(Br)c3)nc2c1 | 15.1 | 13.2 |  |  |
| COc1cc(OC)c2c(=O)[nH]c(-c3cc(C)c(OCC(=O)NC4CCN(C(=O)OC(C)(C)C)CC4)c(C)c3)nc2c1 | 17.2 | 22.4 |  |  |
| COc1cc(OC)c2c(=O)[nH]c(-c3cc(C)c(OCC(=O)Nc4ccc(N5CCCCC5)cc4)c(C)c3)nc2c1 | 9.43 | 13.4 |  |  |
| O=C(O)c1ccc2c(c1)nc(Nc1cccc(Cl)c1)c1ccncc12 [SILMITASERTIB] |  |  | Active | Toxic |
| COc1cc(OC)c2c(=O)[nH]c(-c3cc(Br)c(OCC(=O)Nc4ccc(N5CCOCC5)c(Cl)c4)c(Br)c3)nc2c1 | 5.53 | 4.02 |  |  |
| COc1cc(OC)c2c(=O)[nH]c(-c3cc(Br)c(OCC(=O)Nc4ccc(N5CCCCC5)cc4)c(Br)c3)nc2c1 | 15.6 | 16.4 |  |  |
| COc1cccc(-c2cc(=O)c3cc(OC)ccc3o2)c1 [6,3'-DIMETHOXYFLAVONE] | > 50 | > 50 |  |  |
| Cc1ccc2nc(-c3ccc(OCC(=O)Nc4ccc(N5CCN(C)CC5)c(Cl)c4)cc3)[nH]c(=O)c2c1 | 16.2 | 17.4 |  |  |
| COc1cc(OC)c2c(=O)[nH]c(-c3ccc(OCC(=O)Nc4ccc(N5CCCCC5)cc4)cc3)nc2c1 | 11.6 | 10.3 |  |  |
| COc1ccc2nc(-c3cc(OC)c(O)c(OC)c3)[nH]c(=O)c2c1 | 43.3 | > 50 |  |  |
| COc1cc(OC)c2c(=O)[nH]c(-c3ccc(OCC(=O)Nc4ccc(N5CCOCC5)c(F)c4)cc3)nc2c1 | 8.58 | 7.09 |  |  |
| COc1cc(OC)c2c(=O)[nH]c(-c3cc(C)c(OCC(=O)NC4CCN(C)CC4)c(C)c3)nc2c1 | 15.6 | 17.2 |  |  |
| COc1cccc(-c2cc(=S)c3cc(OC)ccc3o2)c1 | > 50 | > 50 |  |  |
| COc1cc(OC)c2c(=O)cc(-c3cc(C)cc(C)c3)oc2c1 | 39.6 | 47.8 |  |  |
| COc1cc(OC)c2c(=O)[nH]c(-c3ccc(O)c(Br)c3)nc2c1 | 22.3 | 23.2 |  |  |
| COc1cc(OC)c2c(=O)[nH]c(-c3cc(C)c(OCC(=O)Nc4ccc(N5CCOCC5)c(F)c4)c(C)c3)nc2c1 | 9.16 | 10.3 |  |  |
| COc1cc(OC)c2c(=O)[nH]c(-c3cc(C)c(OCC(=O)Nc4cccc(N5CCN(C)CC5)c4)c(C)c3)nc2c1 | 15.7 | 14.6 |  |  |

| SMILES | IC50 (MDA-MB-468) [µM] | IC50 (MDA-MB-231 [1]) [µM] | Activity (MDA-MB-231 [2]) | Activity (Mus musculus) |
| --- | --- | --- | --- | --- |
| COc1cc(OC)c2c(=O)[nH]c(-c3ccc(OCC(=O)Nc4ccccc4N4CCN(C)CC4)cc3)nc2c1 | 11.5 | 17.3 |  |  |
| COc1ccc2nc(-c3ccc(NC(C)=O)cc3)[nH]c(=O)c2c1 | 41.2 | > 50 |  |  |
| COc1cc(OC)c2c(=O)[nH]c(-c3ccc(C)cc3)nc2c1 | 38.4 | 45.6 |  |  |
| CN1CCN(c2ccc(NC(=O)COc3ccc(-c4nc5cc(Cl)ccc5c(=O)[nH]4)cc3)cc2Cl)CC1 | 15.3 | 14.4 |  |  |
| COc1cc(OC)c2c(=O)[nH]c(-c3ccc(OCC(=O)Nc4ccc(N5CCN(C)CC5)cc4)cc3)nc2c1 | 8.8 | 6.46 |  |  |
| COc1ccc2oc(-c3cc(C)cc(C)c3)cc(=O)c2c1 | > 50 | 45.7 |  |  |
| COc1cc(OC)c2c(=O)[nH]c(-c3ccc(OCC(=O)Nc4ccc(N5CCCC5)cc4)cc3)nc2c1 | 7.82 | 19.6 |  |  |
| COc1cc(OC)c2c(=O)[nH]c(-c3ccc(OCC(=O)Nc4cc(OC)c(OC)c(OC)c4)cc3)nc2c1 | 15 | 23.4 |  |  |
| COc1cc(-c2nc3ccccc3c(=O)[nH]2)cc(OC)c1O | > 50 | > 50 |  |  |
| CC(=O)Nc1ccc(-c2nc3ccccc3c(=O)[nH]2)cc1 | > 50 | > 50 |  |  |
| COc1cc(OC)c2c(=O)[nH]c(-c3cccc(OCC(=O)O)c3)nc2c1 | 22.7 | 25.6 |  |  |
| COc1cc(OC)c2c(=O)[nH]c(-c3ccc(OCC(=O)NC4CCN(C(=O)OC(C)(C)C)CC4)cc3)nc2c1 | 16.6 | 13.1 |  |  |
| COc1cc(OC)c2c(=O)[nH]c(-c3ccc(OCC(=O)Nc4ccc(N5CCN(C)CC5)c(F)c4)cc3)nc2c1 | 7.55 | 6.3 |  |  |
| COc1cc(OC)c2c(=O)[nH]c(-c3ccc(C(=O)O)cc3)nc2c1 | 8.33 | 21.1 |  |  |
| O=c1cc(-c2ccccc2)oc2ccc(Br)cc12 [6-BROMOFLAVONE] | 48.2 | 33.5 |  |  |
| COc1cc(OC)c2c(=O)[nH]c(-c3ccc(OCC(=O)O)cc3)nc2c1 | 18.6 | 19.7 |  |  |
| COc1cc(OC)c2c(=O)[nH]c(-c3ccc(OCC(=O)NCC4CCOCC4)cc3)nc2c1 | 26.6 | 21.2 |  |  |
| COc1cc(OC)c2c(=O)[nH]c(-c3cc(C)c(OCC(=O)Nc4ccc(N5CCN(C)CC5)cc4)c(C)c3)nc2c1 | 12.6 | 10.8 |  |  |
| COc1cc(OC)c2c(=O)[nH]c(-c3ccc(NC(C)=O)cc3)nc2c1 | 24.7 | 27.3 |  |  |
| COc1cc(OC)c2c(=O)[nH]c(-c3cc(Br)c(OCC(=O)Nc4ccc(N5CCN(C)CC5)cc4)c(Br)c3)nc2c1 | 15.8 | 13.6 |  |  |
